The values below come from patent US10544113B2 (priority 2016, dated 2020).

One assay concerns the target mu-opioid receptor (MOR) (Homo sapiens (Human), UniProt P35372). The assay can be described thus: cell-based.
A further assay has as its system DOR. The assay is described as follows: cAMP assay (adenylyl cyclase inhibition) in HEK-DOR cells. It is filed as cell-based. The conditions noted are these: in the presence of naloxone (20 nM). The protocol:
Human embryonic kidney 293 (HEK-293) cells constitutively expressing MOR (HEK-MOR) and DOR (HEK-DOR) (kindly provided by Dr. Ping-Yee Law, University of Minnesota, USA) were cultured in high-glucose Dulbecco's modified Eagle's medium (DMEM, GIBCO) supplemented with 400 μg/mL G418 (Sigma), 2 mM L-glutamine and P/S/F (100 units/mL penicillin, 100 μg/mL streptomycin, 10% fetal bovine serum). Chinese hamster ovary (CHO)-K1 cells, stably expressing hMOR and Gα15 (CHO-K1/MOR/Gα15), were cultured in F12 medium (GIBCO) supplemented with 10 μg/mL Hygromycin B (Invivogen), 20 μg/mL Zeocin (Invivogen) P/S/F (100 units/mL penicillin, 100 μg/mL streptomycin, 10% fetal bovine serum). The cultures were incubated at 37° C. in a humidified 5% CO2 incubator.
Briefly, 2000 HEK-MOR cells or HEK-DOR cells were plated in 10 μL/well of DMEM in 96-well solid bottom white plates and 10 μL/well compound in HBSS in the presence with 1 μM forskolin and 100 μM 3-isobutyl-1-methylxanthine (IBMX). After 30 minutes of incubation at room temperature, 10 μL/well of labeled d2-cAMP and 10 μL/well of anti-cAMP antibody (both diluted in lysis buffer) were added to each well. Two hours later, plates were measured using the FlexStationIII (Molecular Devices Corp.) with excitation at 330 nm and emissions of 620 nm and 665 nm.
To characterize of novel opioid receptor AAMs, the activity and selectivity of compound 58 were tested by inhibiting adenylyl cyclase activity (i.e., cAMP assay).
Opoid receptors inhibit adenylyl cyclase activity through Gi/o family of heterotrimeric G proteins. A cAMP-accumulation assay was performed to determine whether opioid receptor AAMs affect a G protein-dependent signaling pathway.
In general terms: Changes in cAMP serve as a functional read-out for many G protein-coupled receptors.

Entries after “also recorded” stand apart in the source; their conditions may differ. Where two headings read alike, the source gives them in different places.

mu-opioid receptor (MOR), sequence (P35372 whole entry): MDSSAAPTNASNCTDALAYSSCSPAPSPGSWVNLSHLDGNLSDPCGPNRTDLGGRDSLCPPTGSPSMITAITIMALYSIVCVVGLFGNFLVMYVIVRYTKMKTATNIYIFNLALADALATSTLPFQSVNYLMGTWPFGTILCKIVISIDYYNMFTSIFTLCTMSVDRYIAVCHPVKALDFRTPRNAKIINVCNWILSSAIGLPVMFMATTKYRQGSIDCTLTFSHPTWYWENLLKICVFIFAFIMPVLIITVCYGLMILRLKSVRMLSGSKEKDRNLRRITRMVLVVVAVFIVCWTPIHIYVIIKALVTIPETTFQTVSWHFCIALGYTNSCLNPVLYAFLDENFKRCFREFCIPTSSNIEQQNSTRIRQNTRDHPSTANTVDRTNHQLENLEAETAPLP

The EC50 is the concentration at which the effect is half-maximal. Take `Cc1cc(C(=O)O)ccc1N1C(=O)CSC1c1ccc(F)cc1` (stereo not drawn): the EC50 at mu-opioid receptor (MOR) (co-administrated with naloxone (20 nM), read-out: EC50 of calcium release) is 1300 nM; on mu-opioid receptor (MOR) (combined with Cyprodime hydrochloride 500 nM, read-out: EC50) it was 5120 ± 2520 nM; at mu-opioid receptor (MOR) (combined with Naloxonazine dihydrochloride 20 nM, read-out: EC50) it was 642 nM; on mu-opioid receptor (MOR) (combined with Naltrexone 20 nM, read-out: EC50), 630 ± 217 nM; on mu-opioid receptor (MOR) (combined with Samidorphan 10 nM, read-out: EC50), 5530 nM; at mu-opioid receptor (MOR) (combined with Samidorphan 20 nM, read-out: EC50) it was 5270 nM. Besides, the EC50 was determined as 1100 nM on mu-opioid receptor (MOR) (combined with a MOR antagonist, read-out: FLIPR Ca^2+ EC50) and 346 ± 209 nM at mu-opioid receptor (MOR) (combined with β-Funaltrexamine hydrochloride 20 nM, read-out: EC50). Besides, the “activity combined with peptide MOR antagonist CTOP” value on mu-opioid receptor (MOR) (combination with CTOP) is on record as “no activity was observed”. Further, the AUC was determined as 7893 on mu-opioid receptor (MOR) (combined with Cyprodime hydrochloride 500 nM); 8506 at mu-opioid receptor (MOR) (combined with Nalmefene 20 nM); 11819.33 at mu-opioid receptor (MOR) (combined with Naloxonazine dihydrochloride 20 nM); 12980.33 on mu-opioid receptor (MOR) (combined with Naltrexone 20 nM); 13179 at mu-opioid receptor (MOR) (combined with Samidorphan 10 nM); 14094 on mu-opioid receptor (MOR) (combined with Samidorphan 20 nM). On mu-opioid receptor (MOR) (combined with β-Funaltrexamine hydrochloride 20 nM), the AUC is recorded as 8553.5. At mu-opioid receptor (MOR) (combined with a MOR antagonist), the “FLIPR Ca^2+ AUC” value was found to be 16361. Also, the “AAM effect with naltrexone” value at mu-opioid receptor (MOR) (combined with naltrexone, compared with naloxone) is “worked as an AAM of naltrexone, with similar potency but a higher magnitude of efficacy”. On mu-opioid receptor (MOR) (combined with one of the listed opioid antagonists), the “calcium release in the presence of an opioid antagonist” value is given as “induced significant calcium release”. At mu-opioid receptor (MOR) (compound alone, no antagonist), the “response on its own (calcium release)” value is given as “did not show responses on their own; also recorded: did not elicit any response on its own”. On mu-opioid receptor (MOR) (morphine CRC with compound at 30, 10, 3.3 μM), the “effect on Emax and potency of morphine (PAM/NAM test)” value was “neither Emax nor potency of morphine was significantly altered”. Further, at mu-opioid receptor (MOR) (naloxone (25 nM)), the “calcium release in the presence of naloxone” value is “induced a significant calcium release”. Moreover, the “effect on concentration-response curve of naloxone (Emax, potency)” value on mu-opioid receptor (MOR) (naloxone CRC with compound at different concentrations) is “both Emax and potency of naloxone were altered”. Further, in the assay on DOR, the “effect on adenylyl cyclase activity” value is “produced no effect”.
